Where “and” joins values, the source holds several entries; their conditions need not be identical. Equal values may be shown once. Where a SMILES comes first, the peptide text is derived from it. [ ]: non-standard residue; d: D form. The star is where a group is joined. Phe(4-F) = N[C@@H](Cc1ccc(F)cc1)C(=O)O; 1Nal = N[C@@H](Cc1cccc2ccccc12)C(=O)O; 2Nal = N[C@@H](Cc1ccc2ccccc2c1)C(=O)O; Cyclohexanecarbonyl = O=C(C1CCCCC1)*; 1Naphthoyl = O=C(c1cccc2ccccc12)*; 2Naphthoyl = O=C(c1ccc2ccccc2c1)*; Cha = N[C@@H](CC1CCCCC1)C(=O)O; 4Amb = NCc1ccc(C(=O)O)cc1; Nle = CCCC[C@H](N)C(=O)O; Aib = CC(C)(N)C(=O)O; Bz = O=C(c1ccccc1)*
Tests used:
[1] = target: T1, human Y2R (Homo sapiens, UniProt P49146); assay: biochemical; type: binding
T1 sequence (P49146 1-381): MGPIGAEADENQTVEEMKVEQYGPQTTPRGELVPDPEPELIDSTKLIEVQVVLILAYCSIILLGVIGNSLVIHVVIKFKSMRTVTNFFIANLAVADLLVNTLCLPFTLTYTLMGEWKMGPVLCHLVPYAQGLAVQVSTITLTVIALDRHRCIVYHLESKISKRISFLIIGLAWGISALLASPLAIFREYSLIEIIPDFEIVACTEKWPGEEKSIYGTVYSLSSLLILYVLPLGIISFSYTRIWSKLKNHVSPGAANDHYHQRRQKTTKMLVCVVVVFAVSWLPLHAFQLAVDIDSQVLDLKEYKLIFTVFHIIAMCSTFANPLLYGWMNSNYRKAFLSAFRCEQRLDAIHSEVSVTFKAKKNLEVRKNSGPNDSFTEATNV

[2] = system: male C57BL/6J mice; assay: Food intake assay, bolus ip administration in lean mice; type: in vivo, mouse; settings: for % food intake inhibition: vs saline; for % food intake inhibition / % food intake inhibition (cumulative): mean ± SD; for minimum effective dose (food intake reduction): ip administration, lean mice
[3] = target: T1, human Y2R; assay: biochemical; type: biochemical
[4] = bolus ip 500 nmol/kg, 3 h after administration
[5] = bolus ip 1000 nmol/kg, 3 h after administration

| SMILES | % food intake inhibition [2, 4] | IC50 [1] | EC50 [3] | further results |
| --- | --- | --- | --- | --- |
| CC(C)C[C@H](NC(=O)[C@H](CC(N)=O)NC(=O)[C@H](CC1CCCCC1)NC(=O)[C@H](CC1CCCCC1)NC(=O)[C@H](Cc1c[nH]cn1)NC(=O)[C@H](CCCNC(=N)N)NC(=O)c1ccccc1)C(=O)NC(C)(C)C(=O)N[C@H](C(=O)N[C@@H](CCCNC(=N)N)C(=O)N[C@@H](CCC(N)=O)C(=O)N[C@@H](CCCNC(=N)N)C(=O)N[C@@H](CC1CCCCC1)C(N)=O)[C@@H](C)O [Compound 21, benzoyl-[Cha^27,28,36,Aib^31]PYY(25–36)] (Bz-RH[Cha][Cha]NL[Aib]TRQR[Cha]-NH2) | 49% and 49 ± 4% | – | – | binding affinity, fold lower than that of PYY3–36 [1]: more than 10 fold; % food intake inhibition ([2]; bolus ip 250 nmol/kg, 3 h after administration): 32 ± 3%; % food intake inhibition (cumulative) ([2]; ip 3 nmol/kg, 3 h after administration): –1 ± 6%; % food intake inhibition (cumulative) ([2]; ip 3 nmol/kg, 6 h after administration): –1 ± 2%; % food intake inhibition (cumulative) ([2]; ip 3 nmol/kg, 24 h after administration): –7 ± 5%; % food intake inhibition (cumulative) ([2]; ip 30 nmol/kg, 3 h after administration): 20 ± 6%; % food intake inhibition (cumulative) ([2]; ip 30 nmol/kg, 6 h after administration): 18 ± 3%; % food intake inhibition (cumulative) ([2]; ip 30 nmol/kg, 24 h after administration): –2 ± 3%; % food intake inhibition (cumulative) ([2]; ip 300 nmol/kg, 3 h after administration): 47 ± 3%; % food intake inhibition (cumulative) ([2]; ip 300 nmol/kg, 6 h after administration): 45 ± 2%; % food intake inhibition (cumulative) ([2]; ip 300 nmol/kg, 24 h after administration): 8 ± 3%; minimum effective dose (food intake reduction) ([2]; food intake 3 and 6 h after dosing): 30 nmol/kg; minimum effective dose (food intake reduction) ([2]; mass equivalent of 30 nmol/kg): ca. 52 μg/kg; agonist activity, fold lower than that of PYY3–36 [3]: more than 10 fold |
| C[C@@H](O)[C@H](NC(=O)C(C)(C)NC(=O)[C@H](Cc1ccc(F)cc1)NC(=O)[C@H](CC(N)=O)NC(=O)[C@H](CC1CCCCC1)NC(=O)[C@H](CC1CCCCC1)NC(=O)[C@H](Cc1c[nH]cn1)NC(=O)[C@H](CCCNC(=N)N)NC(=O)C1CCCCC1)C(=O)N[C@@H](CCCNC(=N)N)C(=O)N[C@@H](CCC(N)=O)C(=O)N[C@@H](CCCNC(=N)N)C(=O)N[C@@H](CC1CCCCC1)C(N)=O [Compound 28] (Cyclohexanecarbonyl-RH[Cha][Cha]N[Phe(4-F)][Aib]TRQR[Cha]-NH2) | 21 ± 7% | 31 nM | 7.2 nM | – |
| CC[C@H](C)[C@H](NC(=O)[C@H](CC1CCCCC1)NC(=O)[C@H](Cc1c[nH]cn1)NC(=O)[C@H](CCCNC(=N)N)NC(=O)C1CCCCC1)C(=O)N[C@@H](CC(N)=O)C(=O)N[C@@H](Cc1c[nH]c2ccccc12)C(=O)N[C@H](C(=O)N[C@H](C(=O)N[C@@H](CCCNC(=N)N)C(=O)N[C@@H](CCC(N)=O)C(=O)N[C@@H](CCCNC(=N)N)C(=O)N[C@@H](CC1CCCCC1)C(N)=O)[C@@H](C)O)[C@@H](C)CC [Compound 13] (Cyclohexanecarbonyl-RH[Cha]INWITRQR[Cha]-NH2) | 8 ± 6% | 6.8 nM | 1.7 nM | – |
| CC(C)C[C@H](NC(=O)[C@H](CC(N)=O)NC(=O)[C@H](Cc1cccc2ccccc12)NC(=O)[C@H](CC1CCCCC1)NC(=O)[C@H](Cc1c[nH]cn1)NC(=O)[C@H](CCCNC(=N)N)NC(=O)c1ccccc1)C(=O)NC(C)(C)C(=O)N[C@H](C(=O)N[C@@H](CCCNC(=N)N)C(=O)N[C@@H](CCC(N)=O)C(=O)N[C@@H](CCCNC(=N)N)C(=O)N[C@@H](CC1CCCCC1)C(N)=O)[C@@H](C)O [Compound 19] (Bz-RH[Cha][1Nal]NL[Aib]TRQR[Cha]-NH2) | 41 ± 5% | 9.1 nM | 2.7 nM | – |
| CC[C@H](C)[C@H](NC(=O)[C@H](CC1CCCCC1)NC(=O)[C@H](Cc1c[nH]cn1)NC(=O)[C@H](CCCNC(=N)N)NC(=O)C1CCCCC1)C(=O)N[C@@H](CC(N)=O)C(=O)N[C@@H](Cc1c[nH]c2ccccc12)C(=O)NC(C)(C)C(=O)N[C@H](C(=O)N[C@@H](CCCNC(=N)N)C(=O)N[C@@H](CCC(N)=O)C(=O)N[C@@H](CCCNC(=N)N)C(=O)N[C@@H](CC1CCCCC1)C(N)=O)[C@@H](C)O [Compound 17] (Cyclohexanecarbonyl-RH[Cha]INW[Aib]TRQR[Cha]-NH2) | 24 ± 5% | 5.7 nM | 1.9 nM | – |
| CC[C@H](C)[C@H](NC(=O)[C@H](CC1CCCCC1)NC(=O)[C@H](Cc1c[nH]cn1)NC(=O)[C@H](CCCNC(=N)N)NC(=O)c1ccccc1)C(=O)N[C@@H](CC(N)=O)C(=O)N[C@@H](CC(C)C)C(=O)N[C@@H](CCCCN)C(=O)N[C@H](C(=O)N[C@@H](CCCNC(=N)N)C(=O)N[C@@H](CCC(N)=O)C(=O)N[C@@H](CCCNC(=N)N)C(=O)N[C@@H](CC1CCCCC1)C(N)=O)[C@@H](C)O [Compound 9] (Bz-RH[Cha]INLKTRQR[Cha]-NH2) | – | 1.6 nM | 0.62 nM | % food intake inhibition [2, 5]: –15 ± 7%; agonist activity, fold increase compared to that of 4 ([3]; relative to compound 4): more than 4 fold |
| CCCC[C@H](NC(=O)[C@H](CC(C)C)NC(=O)[C@H](CC(N)=O)NC(=O)[C@@H](NC(=O)[C@H](CC1CCCCC1)NC(=O)[C@H](Cc1c[nH]cn1)NC(=O)[C@H](CCCNC(=N)N)NC(=O)c1ccccc1)[C@@H](C)CC)C(=O)N[C@H](C(=O)N[C@@H](CCCNC(=N)N)C(=O)N[C@@H](CCC(N)=O)C(=O)N[C@@H](CCCNC(=N)N)C(=O)N[C@@H](CC1CCCCC1)C(N)=O)[C@@H](C)O [Compound 7] (Bz-RH[Cha]INL[Nle]TRQR[Cha]-NH2) | – | 13 nM | 2.4 nM | % food intake inhibition [2, 5]: 12 ± 5% |
| CC(C)C[C@H](NC(=O)[C@H](CC(N)=O)NC(=O)[C@H](Cc1ccc2ccccc2c1)NC(=O)[C@H](CC1CCCCC1)NC(=O)[C@H](Cc1c[nH]cn1)NC(=O)[C@H](CCCNC(=N)N)NC(=O)c1ccccc1)C(=O)NC(C)(C)C(=O)N[C@H](C(=O)N[C@@H](CCCNC(=N)N)C(=O)N[C@@H](CCC(N)=O)C(=O)N[C@@H](CCCNC(=N)N)C(=O)N[C@@H](CC1CCCCC1)C(N)=O)[C@@H](C)O [Compound 20] (Bz-RH[Cha][2Nal]NL[Aib]TRQR[Cha]-NH2) | 18 ± 2% | 29 nM | 7.5 nM | – |
| CC(C)C[C@H](NC(=O)[C@H](CC(N)=O)NC(=O)[C@H](CC1CCCCC1)NC(=O)[C@H](CC1CCCCC1)NC(=O)[C@H](Cc1c[nH]cn1)NC(=O)[C@H](CCCNC(=N)N)NC(=O)c1ccc2ccccc2c1)C(=O)NC(C)(C)C(=O)N[C@H](C(=O)N[C@@H](CCCNC(=N)N)C(=O)N[C@@H](CCC(N)=O)C(=O)N[C@@H](CCCNC(=N)N)C(=O)N[C@@H](CC1CCCCC1)C(N)=O)[C@@H](C)O [Compound 26] (2Naphthoyl-RH[Cha][Cha]NL[Aib]TRQR[Cha]-NH2) | – | 26 nM | 6 nM | – |
| CC(C)C[C@H](NC(=O)[C@H](CC(N)=O)NC(=O)[C@H](CC1CCCCC1)NC(=O)[C@H](CC1CCCCC1)NC(=O)[C@H](Cc1cnc[nH]1)NC(=O)[C@H](CCCNC(=N)N)NC(=O)c1ccc(CN)cc1)C(=O)NC(C)(C)C(=O)N[C@H](C(=O)N[C@@H](CCCNC(=N)N)C(=O)N[C@@H](CCC(N)=O)C(=O)N[C@@H](CCCNC(=N)N)C(=O)N[C@@H](CC1CCCCC1)C(N)=O)[C@@H](C)O [Compound 24] (H-[4Amb]RH[Cha][Cha]NL[Aib]TRQR[Cha]-NH2) | 29 ± 7% | 0.65 nM | 0.48 nM | – |
| CC(C)C[C@H](NC(=O)[C@H](CC(N)=O)NC(=O)[C@H](CC1CCCCC1)NC(=O)[C@H](Cc1ccc2ccccc2c1)NC(=O)[C@H](Cc1c[nH]cn1)NC(=O)[C@H](CCCNC(=N)N)NC(=O)C1CCCCC1)C(=O)NC(C)(C)C(=O)N[C@H](C(=O)N[C@@H](CCCNC(=N)N)C(=O)N[C@@H](CCC(N)=O)C(=O)N[C@@H](CCCNC(=N)N)C(=O)N[C@@H](CC1CCCCC1)C(N)=O)[C@@H](C)O [Compound 29] (Cyclohexanecarbonyl-RH[2Nal][Cha]NL[Aib]TRQR[Cha]-NH2) | 28 ± 8% | 18 nM | 14 nM | – |
| CC(C)C[C@H](NC(=O)[C@H](CC(N)=O)NC(=O)[C@H](CC1CCCCC1)NC(=O)[C@H](CC1CCCCC1)NC(=O)[C@H](Cc1c[nH]cn1)NC(=O)[C@H](CCCNC(=N)N)NC(=O)C1CCCCC1)C(=O)NC(C)(C)C(=O)N[C@H](C(=O)N[C@@H](CCCNC(=N)N)C(=O)N[C@@H](CCC(N)=O)C(=O)N[C@@H](CCCNC(=N)N)C(=O)N[C@@H](CC1CCCCC1)C(N)=O)[C@@H](C)O [Compound 22] (Cyclohexanecarbonyl-RH[Cha][Cha]NL[Aib]TRQR[Cha]-NH2) | 25 ± 7% | 11 nM | 4 nM | – |
| CC(C)C[C@H](NC(=O)[C@H](CC(N)=O)NC(=O)[C@H](CC1CCCCC1)NC(=O)[C@H](CC1CCCCC1)NC(=O)[C@H](Cc1c[nH]cn1)NC(=O)[C@H](CCCNC(=N)N)NC(=O)c1cccc2ccccc12)C(=O)NC(C)(C)C(=O)N[C@H](C(=O)N[C@@H](CCCNC(=N)N)C(=O)N[C@@H](CCC(N)=O)C(=O)N[C@@H](CCCNC(=N)N)C(=O)N[C@@H](CC1CCCCC1)C(N)=O)[C@@H](C)O [Compound 25] (1Naphthoyl-RH[Cha][Cha]NL[Aib]TRQR[Cha]-NH2) | – | 18 nM | 5.8 nM | – |

Source: article PMC6044503 (ACS Omega, 2017)
